The subject of this assay is Strept. mutans. The assay can be described thus: Strept. mutans culture rinse, colony count. The class given is cell-based. As to conditions: 30 second submersion, counted after 48 hours. The method, then:
Standardized cultures of Strept. mutans are grown in petri dishes and subjected to 30 second submersion in 20 milliliters of various concentration rinses of aqueous chlorohexidine. A 0.04% chlorohexidine solution and water serve as controls. Thereafter, the petri dishes are incubated and colony members counted after 48 hours.

Here are results for one compound from patent US20030072781A1, “Calcified tissue facing preparation containing antimicrobial agent” (Advantage Dental Products, Inc., priority 1998, published 2003).

As for `[H]/N=C(\N/C(=N/[H])NCCCCCCNC(=N)NC(=N)Nc1ccc(Cl)cc1)Nc1ccc(Cl)cc1` [Chlorohexidine, chlorohexidine], the “Colony Member After Rinse” value runs as follows: (0.04 wt. % aqueous rinse (control)) 26; (0.2 wt. % aqueous rinse) 0; (0.5 wt. % aqueous rinse) 1; (1.0 wt. % aqueous rinse) 1; (2.0 wt. % aqueous rinse) 0; (5.0 wt. % aqueous rinse) 2. In addition, the “Colony Member After Rinse” value (10.0 wt. % aqueous rinse) amounted to 0.
